Assay results as given in patent US11826351B2, “Compounds useful as kinase inhibitors” (Loxo Oncology, Inc., priority 2015, dated 2023).

Columns and labels:
[1] = biological target: T1, Recombinant BTK^WT kinase (Homo sapiens, UniProt Q06187); assay: BTK WT binding affinity (LanthaScreen TR-FRET); settings: Kinase Tracer 236, 5 h incubation
T1 construct: purchased Invitrogen
How it was run: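 IC50 obtained by variable-slope fit of TR-FRET signal (ex 340 nm; em 615 and 665 nm) versus inhibitor concentration. Reaction held for 5 h in LanthaScreen Kinase Buffer A with 2.5 nM His-tagged BTK^WT, 15 nM Kinase Tracer 236 and 2 nM Eu anti-His antibody.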

[2] = biological target: T2, Recombinant BTK^C481S kinase (Homo sapiens, UniProt Q06187, C481S); assay: BTK C481S binding affinity (LanthaScreen TR-FRET); settings: Kinase Tracer 236, 5 h incubation
T2 construct: purchased SignalChem
How it was run: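 BTK C481S tracer-displacement TR-FRET: 5 nM His-tagged kinase, 2 nM Eu anti-His antibody and 30 nM Kinase Tracer 236 incubated with titrated inhibitor for 5 h in Kinase Buffer A. Read at 340 nm excitation, 615/665 nm emission; IC50 from variable-slope log[inhibitor]–response fit.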

Recombinant EGFR = biological target: T3, Recombinant EGFR (Homo sapiens, UniProt P00533); assay: EGFR binding affinity (LanthaScreen TR-FRET); settings: Kinase Tracer 199, 5 h incubation
T3 construct: purchased Invitrogen
How it was run: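 Compounds were titrated against recombinant EGFR and binding was followed by LanthaScreen time-resolved FRET.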

[3] = system: OCI-Ly10 human DLBCL cells; assay: OCI-Ly10 anti-proliferative activity (Resazurin); format: cell-based; settings: Homo sapiens, OCI-Ly10, 72 h, OCI-Ly10 cells, 72 h compound treatment, Resazurin; read-out: Proliferation Assay OCI-Ly10-20% FBS
How it was run: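 A separate untreated plate gave the Day 0 reading, measured by Resazurin fluorescence at 590 nm after 5 h. The average Day 0 value was subtracted from each treated well, and results were expressed as percent of DMSO control. IC50 values came from a log[Inhibitor] vs response Variable Slope fit in Graphpad prism.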

T3 sequence (P00533 25-1210): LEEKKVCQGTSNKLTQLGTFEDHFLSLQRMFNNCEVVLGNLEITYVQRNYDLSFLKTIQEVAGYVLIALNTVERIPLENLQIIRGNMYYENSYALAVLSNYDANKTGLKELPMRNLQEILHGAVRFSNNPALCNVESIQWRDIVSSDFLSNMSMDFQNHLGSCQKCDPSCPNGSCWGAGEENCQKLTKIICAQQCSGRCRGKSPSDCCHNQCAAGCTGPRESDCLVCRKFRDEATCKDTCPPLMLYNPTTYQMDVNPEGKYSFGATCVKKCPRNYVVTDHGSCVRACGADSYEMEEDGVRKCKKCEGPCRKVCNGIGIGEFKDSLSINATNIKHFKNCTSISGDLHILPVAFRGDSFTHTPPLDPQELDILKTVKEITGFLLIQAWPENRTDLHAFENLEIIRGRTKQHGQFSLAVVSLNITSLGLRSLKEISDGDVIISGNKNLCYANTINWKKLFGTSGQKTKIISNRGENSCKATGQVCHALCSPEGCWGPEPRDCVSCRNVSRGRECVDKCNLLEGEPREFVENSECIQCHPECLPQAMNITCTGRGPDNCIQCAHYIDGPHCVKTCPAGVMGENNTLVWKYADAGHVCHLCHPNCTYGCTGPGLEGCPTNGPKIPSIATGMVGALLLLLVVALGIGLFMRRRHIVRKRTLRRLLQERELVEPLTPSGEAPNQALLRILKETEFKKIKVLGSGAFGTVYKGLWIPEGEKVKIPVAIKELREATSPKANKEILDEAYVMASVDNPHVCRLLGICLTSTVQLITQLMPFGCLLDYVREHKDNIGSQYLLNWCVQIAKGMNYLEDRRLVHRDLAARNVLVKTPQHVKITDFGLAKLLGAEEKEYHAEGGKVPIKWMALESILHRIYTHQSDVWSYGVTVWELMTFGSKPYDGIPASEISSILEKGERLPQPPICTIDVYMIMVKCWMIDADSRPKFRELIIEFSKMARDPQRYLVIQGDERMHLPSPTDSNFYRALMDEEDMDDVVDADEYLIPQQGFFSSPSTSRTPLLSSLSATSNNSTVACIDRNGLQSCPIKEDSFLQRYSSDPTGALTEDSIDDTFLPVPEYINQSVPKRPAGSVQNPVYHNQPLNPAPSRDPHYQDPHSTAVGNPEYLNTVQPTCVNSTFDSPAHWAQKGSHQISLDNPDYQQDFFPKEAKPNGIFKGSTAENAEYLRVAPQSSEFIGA
T1 sequence (Q06187 whole entry): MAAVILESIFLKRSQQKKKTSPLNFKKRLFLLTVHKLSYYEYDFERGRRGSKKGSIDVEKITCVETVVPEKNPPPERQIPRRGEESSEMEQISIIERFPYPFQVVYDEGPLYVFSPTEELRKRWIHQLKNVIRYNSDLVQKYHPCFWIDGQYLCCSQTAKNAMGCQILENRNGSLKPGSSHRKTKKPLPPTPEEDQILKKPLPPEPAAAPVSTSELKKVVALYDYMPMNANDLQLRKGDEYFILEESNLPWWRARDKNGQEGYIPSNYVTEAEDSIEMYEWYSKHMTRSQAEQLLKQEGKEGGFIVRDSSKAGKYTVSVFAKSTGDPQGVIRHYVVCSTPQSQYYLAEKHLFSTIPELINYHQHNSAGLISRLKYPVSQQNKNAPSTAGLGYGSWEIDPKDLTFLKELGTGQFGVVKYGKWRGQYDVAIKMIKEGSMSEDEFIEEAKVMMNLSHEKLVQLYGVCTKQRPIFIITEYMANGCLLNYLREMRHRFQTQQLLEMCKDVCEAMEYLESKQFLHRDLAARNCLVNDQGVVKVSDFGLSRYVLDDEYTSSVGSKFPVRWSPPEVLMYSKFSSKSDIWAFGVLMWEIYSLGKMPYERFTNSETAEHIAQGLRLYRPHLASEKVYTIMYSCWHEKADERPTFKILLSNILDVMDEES
T2 sequence (Q06187 whole entry C481S): as the sequence (Q06187 whole entry) above, with C481S counted along it

Compound: COc1ccc(F)cc1C(=O)NCc1ccc(-c2nn(C3COCC3(F)F)c(N)c2C(N)=O)cc1 (stereo not shown) [Example 200, 5-amino-1-(4,4-difluorotetrahydrofuran-3-yl)-3-[4-[[(5-fluoro-2-methoxy-benzoyl)amino]methyl]phenyl]pyrazole-4-carboxamide]
- IC50 [1]: < 10 nM
- IC50 [2]: < 10 nM
- IC50 (Recombinant EGFR): 1000 to 10000 nM
- IC50 [3]: 10 to 100 nM
